Test results taken from patent US20240269157A1, “COMPOSITIONS AND METHODS FOR OVERCOMING MICROENVIRONMENT-MEDIATED RESISTANCE VIA E-SELECTIN TARGETING” (GLYCOMIMETICS, INC., priority 2021, published 2024).

Tests used:
Assay type in all cases: cell-based, human
KG1 cells [1] = assay: Flow cytometry of E-selectin-PE and HECA-452-FITC reactivity with KG1 cells; conditions: 100 nM 5-AZA
Procedure: The increased adhesion of KG1 cells to E-selectin following treatment with 5-AZA was further examined by flow cytometry. Cells were cultured for 96 hours in the presence or absence of 100 nM 5-AZA. The binding of E-selectin-PE (E-selectin-Fc chimera conjugated with R-phycoerythrin) to the cells was determined by flow cytometry. In addition, the reactivity of the cells with HECA-452 monoclonal antibody, which specifically reacts with sialyl Lewis A/X carbohydrate structures and is a surrogate marker of E-selectin ligand, was determined by flow cytometry.
Specifically, KG1 cells were centrifuged at 250×g for 10 minutes, washed with HBSS containing 0.1% bovine serum albumin (HBSS/BSA), and resuspended in HBSS/BSA to approximately 3×10^6 cells per mL. The cells were treated with Fc receptor blocker (Miltenyi Biotech) and 100 μL aliquots (3×10^5 cells) were added to 12×75 mm Falcon polypropylene tubes. Cells were treated with either 5 μL E-selectin-Fc-PE reagent or 20 μL HECA-452-FITC antibody, placed at 4° C. for 45 minutes, washed with 2 mL then again with 1 mL HBSS/BSA. Final cell pellets were resuspended in 500 μl HBSS/BSA and analyzed on an Attune N×T flow cytometer. E-selectin was conjugated with R-phycoerythrin using the PE/R-phycoerythrin conjugation kit—Lightning-Link (Abcam ab102918).

KG1 cells [2] = assay: Real time qPCR of mRNAs encoding glycosyltransferases in KG1 cells; set-up: key to AVG ΔCt (Ct(GOI) − Ave Ct (HKG)) Test Sample: Ct of gene of interest minus average housekeeping-gene Ct; key to Fold Change Test Sample/Control Sample: ratio of 2^(−ΔCt) treated / 2^(−ΔCt) control; conditions: KG1, 100 nM 5-AZA, 96 hours
Procedure: To address the hypothesis that hypomethylation led to enhanced expression of glycosyltransferases, KG1 cells were cultured in the presence or absence of 100 nM 5-AZA for 96 hours followed by real time qPCR analysis of mRNAs encoding relevant glycosyltransferases. Fresh 5-AZA was added to the culture daily. Approximately 1×10^6 cells were pelleted by centrifugation at 250×g for 10 minutes then snap frozen on dry ice. Total RNA was extracted and purified using a QIAGEN RNeasy® Kit with an on-column DNase treatment step (QIAGEN Cat. No. 74104). The fold-change (2^(−Delta Ct)) is the normalized gene expression (2^(−Delta Ct)) in the 5-AZA treated sample divided the normalized gene expression (2^(−Delta Ct)) in the control sample.
In Table 1, fold-regulation represents fold-change results in a biologically meaningful way. Fold-change values greater than one indicate a positive- or an up-regulation, and the fold-regulation is equal to the fold-change. Fold-change values less than one indicate a negative or down-regulation, and the fold-regulation is the negative inverse of the fold-change. Additionally, p-values in Table 1 were calculated based on a Student's t-test of the replicate 2^(−Delta Ct) values for each gene in the control group and treatment groups.

HUVEC co-cultured AML = assay: Cell cycle regulating protein expression in HUVEC co-cultured AML

With `Nc1ncn([C@@H]2O[C@H](CO)[C@@H](O)[C@H]2O)c(=O)n1` [5-azacitidine] the “increase in MFI, HECA-452” value (KG1 cells [1]; 96 hours) was 26%, the “increase in median fluorescence intensity, E-selectin-PE” value (KG1 cells [1]; 96 hours) was 38% and the “increase in the percentage of cells reactive with E-selectin-PE” value (KG1 cells [1]; 96 hours) was 38%. For the same molecule, the “increase in the percentage of cells reactive with HECA-452” value (KG1 cells [1]; 96 hours) was 27%, the “percentage of cells reactive with HECA-452” value (KG1 cells [1]; 96 hours (untreated 37.8%)) was 47.9% and the “percentage of cells reactive with E-selectin-PE” value (KG1 cells [1]; 96 hours (untreated 38.4%)) was 52.9%. The “MFI, HECA-452” value (KG1 cells [1]; 96 hours (untreated 621)) was 783, the “median fluorescence intensity (MFI), E-selectin-PE” value (KG1 cells [1]; 96 hours (untreated 940)) was 1299 and the “2^-ΔCt Test Sample” value (KG1 cells [2]; ACTB) was 5.5E−01. For the same molecule, the “AVG ΔCt (Ct(GOI) − Ave Ct (HKG)) Test Sample” value (“AVG ΔCt” for short) (KG1 cells [2]; ACTB) was 0.87, the “Fold Change Test Sample/Control Sample” value (KG1 cells [2]; ACTB) was 0.58 and the “Fold Up- or Down-Regulation Test Sample/Control Sample” value (KG1 cells [2]; ACTB) was −1.73. For the same molecule, the “2^-ΔCt Test Sample” value (KG1 cells [2]; B3GNT5) was 2.3E−03, the “AVG ΔCt” value (KG1 cells [2]; B3GNT5) was 8.74 and the “Fold Change Test Sample/Control Sample” value (KG1 cells [2]; B3GNT5) was 2.36. For the same molecule, the “Fold Up- or Down-Regulation Test Sample/Control Sample” value (KG1 cells [2]; B3GNT5) was 2.36, the “2^-ΔCt Test Sample” value (KG1 cells [2]; CDKN1C) was 6.1E−04 and the “AVG ΔCt” value (KG1 cells [2]; CDKN1C) was 10.69. The “Fold Change Test Sample/Control Sample” value (KG1 cells [2]; CDKN1C) was 1.24, the “Fold Up- or Down-Regulation Test Sample/Control Sample” value (KG1 cells [2]; CDKN1C) was 1.24 and the “2^-ΔCt Test Sample” value (KG1 cells [2]; FUT3) was 3.3E−05. The “AVG ΔCt” value (KG1 cells [2]; FUT3) was 14.89, the “Fold Change Test Sample/Control Sample” value (KG1 cells [2]; FUT3) was 1.42 and the “Fold Up- or Down-Regulation Test Sample/Control Sample” value (KG1 cells [2]; FUT3) was 1.42. For the same molecule, the “2^-ΔCt Test Sample” value (KG1 cells [2]; FUT4) was 3.6E−05, the “AVG ΔCt” value (KG1 cells [2]; FUT4) was 14.78 and the “Fold Change Test Sample/Control Sample” value (KG1 cells [2]; FUT4) was 0.98. For the same molecule, the “Fold Up- or Down-Regulation Test Sample/Control Sample” value (KG1 cells [2]; FUT4) was −1.02, the “2^-ΔCt Test Sample” value (KG1 cells [2]; FUT5) was 3.3E−05 and the “AVG ΔCt” value (KG1 cells [2]; FUT5) was 14.89. The “Fold Change Test Sample/Control Sample” value (KG1 cells [2]; FUT5) was 1.03, the “Fold Up- or Down-Regulation Test Sample/Control Sample” value (KG1 cells [2]; FUT5) was 1.03 and the “2^-ΔCt Test Sample” value (KG1 cells [2]; FUT6) was 9.3E−05. The “AVG ΔCt” value (KG1 cells [2]; FUT6) was 13.39, the “Fold Change Test Sample/Control Sample” value (KG1 cells [2]; FUT6) was 3.27 and the “Fold Up- or Down-Regulation Test Sample/Control Sample” value (KG1 cells [2]; FUT6) was 3.27. The “2^-ΔCt Test Sample” value (KG1 cells [2]; FUT7) was 3.0E−04, the “AVG ΔCt” value (KG1 cells [2]; FUT7) was 11.71 and the “Fold Change Test Sample/Control Sample” value (KG1 cells [2]; FUT7) was 10.15. For the same molecule, the “Fold Up- or Down-Regulation Test Sample/Control Sample” value (KG1 cells [2]; FUT7) was 10.15, the “2^-ΔCt Test Sample” value (KG1 cells [2]; FUT9) was 4.4E−05 and the “AVG ΔCt” value (KG1 cells [2]; FUT9) was 14.46. The “Fold Change Test Sample/Control Sample” value (KG1 cells [2]; FUT9) was 1.92, the “Fold Up- or Down-Regulation Test Sample/Control Sample” value (KG1 cells [2]; FUT9) was 1.92 and the “2^-ΔCt Test Sample” value (KG1 cells [2]; GAPDH) was 1.8E+00. The “AVG ΔCt” value (KG1 cells [2]; GAPDH) was −0.87, the “Fold Change Test Sample/Control Sample” value (KG1 cells [2]; GAPDH) was 1.73 and the “Fold Up- or Down-Regulation Test Sample/Control Sample” value (KG1 cells [2]; GAPDH) was 1.73. The “2^-ΔCt Test Sample” value (KG1 cells [2]; ST3GAL3) was 5.0E−04, the “AVG ΔCt” value (KG1 cells [2]; ST3GAL3) was 10.95 and the “Fold Change Test Sample/Control Sample” value (KG1 cells [2]; ST3GAL3) was 1.07. For the same molecule, the “Fold Up- or Down-Regulation Test Sample/Control Sample” value (KG1 cells [2]; ST3GAL3) was 1.07, the “2^-ΔCt Test Sample” value (KG1 cells [2]; ST3GAL4) was 6.9E−03 and the “AVG ΔCt” value (KG1 cells [2]; ST3GAL4) was 7.17. For the same molecule, the “Fold Change Test Sample/Control Sample” value (KG1 cells [2]; ST3GAL4) was 2.78, the “Fold Up- or Down-Regulation Test Sample/Control Sample” value (KG1 cells [2]; ST3GAL4) was 2.78 and the “2^-ΔCt Test Sample” value (KG1 cells [2]; ST3GAL6) was 2.0E−02. The “AVG ΔCt” value (KG1 cells [2]; ST3GAL6) was 5.66, the “Fold Change Test Sample/Control Sample” value (KG1 cells [2]; ST3GAL6) was 2.55 and the “Fold Up- or Down-Regulation Test Sample/Control Sample” value (KG1 cells [2]; ST3GAL6) was 2.55.
For `CCC1CC(C(=O)NCCNC(=O)CCOCCOCCOCCOCCOCCOCCOCCOCCOCCOCCOCCOC)C[C@@H](O[C@@H]2OC(CO)[C@H](O)C(O[C@@H](CC3CCCCC3)C(=O)O)C2NC(C)=O)[C@@H]1OC1O[C@@H](C)[C@H](O)C(O)[C@@H]1O` (stereo partly shown) [Compound A], the “expression of cell cycle regulating proteins including CDK4, CDK6, CyclinD1, and CyclinD2” value (HUVEC co-cultured AML) was “increased”.
